# Measured values from patent US9150555B2, “Amide derivative and use thereof” (Mitsubishi Tanabe Pharma Corporation, priority 2010, dated 2015).
# Structures can show the parent of a compound that is named as a salt.
# Columns and labels:
# [1] = system: IL-17 production of mouse spleen cells stimulated by rm-IL-23; assay: Production of IL-17 induced when mouse spleen cells were stimulated by recombinant mouse interleukin-23 (rm-IL-23); assay type: cell-based; details: inhibition of IL-17 production, DBA/1J mouse spleen cells, rm-IL-23 1 nmol/L, ELISA
# Description: Effect on Production of IL-17 Induced when Mouse Spleen Cells were Stimulated by Recombinant Mouse Interleukin-23 (rm-IL-23)
# An RPMI1640 (Sigma-Aldrich) was used as a medium, to which penicillin G potassium (50 units/mL; Gibco), streptomycin (50 μg/mL; Gibco) and 2-mercaptoethanol (50 μmol/l; Sigma-Aldrich) were added, and then 10% of fetal calf serum (FCS; Cell Culture Technology) inactivated at 56° C. for 30 minutes was added and used in the Test. The test compound was dissolved in dimethylsulfoxide and diluted with 10% FCS-containing RPMI1640 medium to a desired concentration and used in the test. The spleens were aseptically taken out from 6-7 week-old male DBA/1J mice (Charles River Japan, Inc.) and a single cell suspension of spleen cells was prepared and hemolyzed by hypotonic treatment with a mixture of 0.83% aqueous solution of ammonium chloride and Tris-HCl buffer of pH 7.65 (9:1). A cell suspension prepared by 10% FCS-containing RPMI1640 medium was added to flat-bottomed 96 well microtestplate at 2×10^5 cells/well. Test compounds and rm-IL-23 (R&D systems) were diluted with a medium to 1 to 1,000 nmol/L, and 1 nmol/L of the final concentration respectively, which were added and cultured at 37° C., 5% carbon dioxide and 95% air for 72 hours. After completion of the culture, culture supernatant was sampled and an amount of IL-17 production was determined by ELISA method. After sampling the supernatant, WST-8 (Seikagaku Corporation) was added at 10 μl/well and cultured at 37° C., 5% carbon dioxide and 95% air for 4 hours. Then, absorbance (O.D.: Optical Density) at 450 nm was measured by a microplate reader and the value was adopted as an index of cell survivability. An inhibition rate (%) was calculated according to the following formula on the basis of an average of an amount of IL-17 production and a O.D. values of the well containing a test compound of each concentration.
# Based on the dose-response curve obtained by plotting the inhibition rate in the longitudinal axis and concentration in the horizontal axis, the concentration of the compound which inhibits the level to 50% of the value of the control group (IC50; nmol/L) was determined by linear regression analysis. The results was shown in the next Table 1
# hERG = hERG (Homo sapiens, UniProt Q12809); assay: Effects on hERG current (whole-cell clamping); details: human, HEK 293 cells that express hERG
# Chain of hERG (Q12809 whole entry): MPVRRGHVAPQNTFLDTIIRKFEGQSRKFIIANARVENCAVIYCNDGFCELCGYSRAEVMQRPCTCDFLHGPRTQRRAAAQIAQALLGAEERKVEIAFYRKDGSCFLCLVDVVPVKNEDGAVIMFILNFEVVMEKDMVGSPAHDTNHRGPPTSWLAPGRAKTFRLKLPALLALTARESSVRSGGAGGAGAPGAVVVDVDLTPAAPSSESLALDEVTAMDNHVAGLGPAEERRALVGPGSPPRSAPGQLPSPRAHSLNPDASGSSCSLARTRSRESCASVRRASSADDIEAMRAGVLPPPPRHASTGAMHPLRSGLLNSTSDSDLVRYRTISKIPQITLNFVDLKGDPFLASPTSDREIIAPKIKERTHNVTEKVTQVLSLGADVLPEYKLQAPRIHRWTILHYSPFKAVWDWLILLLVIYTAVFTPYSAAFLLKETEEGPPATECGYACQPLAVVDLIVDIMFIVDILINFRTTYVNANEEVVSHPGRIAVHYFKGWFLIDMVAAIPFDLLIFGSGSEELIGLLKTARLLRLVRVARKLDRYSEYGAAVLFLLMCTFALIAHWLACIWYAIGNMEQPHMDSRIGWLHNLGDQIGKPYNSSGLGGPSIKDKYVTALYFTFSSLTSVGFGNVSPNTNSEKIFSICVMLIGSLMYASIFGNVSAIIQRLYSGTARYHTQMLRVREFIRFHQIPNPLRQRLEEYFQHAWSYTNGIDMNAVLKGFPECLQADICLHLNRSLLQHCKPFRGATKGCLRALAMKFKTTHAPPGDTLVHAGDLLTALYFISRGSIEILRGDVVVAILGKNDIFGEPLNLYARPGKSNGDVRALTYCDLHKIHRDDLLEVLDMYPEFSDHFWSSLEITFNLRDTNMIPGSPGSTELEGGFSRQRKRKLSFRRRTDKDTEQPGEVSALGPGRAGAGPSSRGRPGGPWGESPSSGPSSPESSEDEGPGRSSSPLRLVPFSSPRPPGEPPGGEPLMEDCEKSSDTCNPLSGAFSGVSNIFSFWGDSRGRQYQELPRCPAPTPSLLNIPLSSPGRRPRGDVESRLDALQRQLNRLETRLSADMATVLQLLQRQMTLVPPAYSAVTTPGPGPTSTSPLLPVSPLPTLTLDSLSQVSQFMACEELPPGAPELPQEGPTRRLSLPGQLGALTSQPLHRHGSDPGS
# Description: Dimethylsulfoxide was used as a vehicle and hERG-expressed HEK 293 cells (Cytomyx) were used as test cells. Test cells were once cultured and subdivided and were stored under frozen condition in liquid nitrogen. In the study, thawed and subcultured cells having less than 30 of the passage number were used. Test cells were cultured in a carbon dioxide incubator BNP-110M (Tabai Espec Corp.) at 37±1° C., and 5.0±0.5% of carbon dioxide concentration. The component of culture medium was MEM (Minimum Essential Medium) supplemented with 10 vol % fetal bovine serum (non-activated), 1 mmol/L sodium pyruvate, 0.1 mmol/L non-essential amino acid, 100 U/mL penicillin with 100 μg/mL streptomycin. To select gene-expressing cells, 400 μg/mL G418 Sulphate (Invitrogen) was added to the culture medium. In the dishes for the measurement, the medium which not contain G418 Sulphate (Invitrogen) was used.
# As to seeding of cells for measurement, subcultured cells which became confluent were treated with 0.25% trypsin-solution containing 1 mmol/L EDTA (Invitrogen) to remove from the plate, and seeded on sterilized collagen-coated cover glass (Iwaki, AGC Techno Glass Co., LTD). The medium was exchanged appropriately, including the day of measurement.
# A perfusion method was applied to the experiment. Test cells were perfused (perfusion speed: approximately 4 mL/min) with an external solution containing specified concentrations of test compounds (component of external solution: 137 mmol/L of sodium chloride, 4 mmol/L of potassium chloride, 10 mmol/L of HEPES, 1.8 mmol/L of calcium chloride, 1 mmol/L of magnesium chloride and 10 mmol/L of glucose; adjusted to pH 7.4±0.1 with sodium hydroxide aqueous solution). […] When effects were observed, the perfusion was continued until the maximum response was observed. […] The data were obtained from one experiment or more and the cells which were incubated in a carbon dioxide incubator after seeding and attached to cover slips were used for the measurement.
# A whole-cell clamping method was applied to the measurement. Test cells were perfused (perfusion speed: approximately 4 mL/min) with an external solution (component of external solution: 137 mmol/L of sodium chloride, 4 mmol/L of potassium chloride, 10 mmol/L of HEPES, 1.8 mmol/L of calcium chloride, 1 mmol/L of magnesium chloride and 10 mmol/L of glucose; adjusted to pH 7.4±0.1 with sodium hydroxide aqueous solution). A glass electrode with a resistance of 2 to 6 MΩ, filled with an internal solution (component: 130 mmol/L of potassium chloride, 1 mmol/L of magnesium chloride, 5 mmol/L of EGTA, 10 mmol/L of HEPES and 5 mmol/L of ATP adjusted to pH 7.2±0.1 with sodium hydroxide aqueous solution) was used. After rupturing cell membrane with glass electrode, the cell membrane voltage was held at −80 mV via a patch clamp software (pCLAMP9 [Axon CNS], Molecular Devices) using patch clamp amplifier (EPC8, HEKA). […] Test cells and the cell-attached cover glass were changed every treatment. Temperature of the fluid in a perfusion fluid tank was 24±2° C.
# The obtained current was recorded on a computer via a patch clamp amplifier using patch clamp software. An evaluation item was a tail peak current.
# A tail peak current was analyzed using analyzing software (Clampfit 9 [Axon CNS], MolecularDevices). Each 2 pulses of before and after perfusion of test compound for each concentration was analyzed, and a peak values of the tail current on the pulses were determined. The inhibition ratio was determined according to the following equation:
# [2] = pH 7.4, hERG inhibition rate (%) (1 μM), 1 μM, tail peak current, hERG-expressed HEK 293 cells
SMILES,"IC50 ([1]; Mus musculus, 72 h) [nM]",inhibition at 1 µM (hERG; [2]) [%],IC50 ([1]; 72 hours) [nM],inhibition at 1 µM (hERG; pH 7.4) [%]
"Cc1cc(NC(=O)c2cnn(-c3ccc(C(F)(F)F)cn3)c2C)cnc1C1=CCC(N(C)C(=O)C(F)(F)F)CC1 (stereo not shown) [Example D265, 5-Methyl-N-(5-methyl-6-{4-[N-methyl-N-(2,2,2-trifluoroacetyl)amino]cyclohex-1-en-1-yl}pyridin-3-yl)-1-[5-(trifluoromethyl)pyridin-2-yl]-1H-pyrazole-4-carboxamide]",4.91,35.9,–,–
Cc1cc(NC(=O)c2cnn(-c3ccc(C(F)(F)F)cn3)c2C)cnc1C1=CCC(C(=O)NC(C)(C)C)CC1 (stereo not shown) [Example D268],155,9.8,–,–
Cc1cc(NC(=O)c2cnn(-c3ccc(C4CC4)cn3)c2C)cnc1C1=CCC(C(=O)NC(C)(C)C)CC1 (stereo not shown) [Example D269],207,14.1,–,–
Cc1c(C(=O)Nc2ccc([C@]3(C#N)CC[C@]4(C=CCO4)CC3)nc2)cnn1-c1ccc(C(F)(F)F)cn1 [Example D270],55.8,0.5,–,–
CC[C@]1(O)CC[C@](C#N)(c2ccc(NC(=O)c3cnn(-c4ccc(Cl)cc4)c3C)cn2)CC1 [Example D275],55.3,14.4,–,–
CC[C@]1(O)CC[C@](C#N)(c2ccc(NC(=O)c3cnn(-c4ccc(C(F)(F)F)cn4)c3C)cn2)CC1 [Example D276],71.2,8.9,–,–
"Cc1c(C(=O)Nc2ccc([C@]3(C#N)CC[C@]4(CCCO4)CC3)nc2)cnn1-c1ccc(C(F)(F)F)cn1 [Example D278, N-[6-(c-8-Cyano-r-1-oxaspiro[4.5]decan-8-yl)pyridin-3-yl]-5-methyl-1-[5-(trifluoromethyl)-pyridin-2-yl]-1H-pyrazole-4-carboxamide]",50.2,13.6,–,–
Cc1ccc(-n2ncc(C(=O)Nc3ccc([C@]4(C#N)CC[C@]5(CCCO5)CC4)nc3)c2C)cc1 [Example D279],112,12.8,–,–
Cc1c(C(=O)Nc2cnc(C3=CCC(N4CCOCC4)CC3)c(F)c2)cnn1-c1ccc(C(F)(F)F)cn1 (stereo not shown) [Example D282],174,11.9,–,–
"Cc1c(C(=O)Nc2ccc([C@]3(C#N)CC[C@@H](N(C)C(=O)C(C)(C)C)CC3)nc2)cnn1-c1ccc(C(F)(F)F)cn1 [Example D288, N-(6-{r-1-Cyano-c-4-[N-(2,2-dimethylpropanoyl)-N-methylamino]cyclohexan-1-yl}pyridin-3-yl)-5-methyl-1-[5-(trifluoromethyl)pyridin-2-yl]-1H-pyrazole-4-carboxamide]",5.38,5.9,–,–
"Cc1c(C(=O)Nc2ccc([C@]3(C#N)CC[C@@H](N(C)C(=O)C(C)C)CC3)nc2)cnn1-c1ccc(C(F)(F)F)cn1 [Example D289, N-{6-[r-1-Cyano-c-4-(N-isobutyryl-N-methylamino)cyclohexan-1-yl]pyridin-3-yl}-5-methyl-1-[5-(trifluoromethyl)pyridin-2-yl]-1H-pyrazole-4-carboxamide]",87.2,11.6,–,–
Cc1nc(-n2ncc(C(=O)Nc3ccc([C@]4(C#N)CC[C@@H](N5CCOCC5)CC4)nc3)c2C)ccc1C(F)(F)F [Example D299],112,40.6,–,–
"CC(C)c1c(C(=O)Nc2ccc([C@]3(C#N)CC[C@@H](N4CCOCC4)CC3)nc2)cnn1-c1ccc(C(F)(F)F)cn1 [Example D300, N-{6-[r-1-Cyano-c-4-(morpholin-4-yl)cyclohexyl]pyridin-3-yl}-5-isopropyl-1-[5-(trifluoromethyl)pyridin-2-yl]-1H-pyrazole-4-carboxamide]",182,26.1,–,–
"Cc1c(C(=O)Nc2ccc(C3=CCC(N4CCOCC4)CC3)nc2)cnn1-c1ccc(C(F)(F)F)cn1 (stereo not shown) [Example E1, 5-Methyl-N-{6-[4-(morpholin-4-yl)cyclohex-1-en-1-yl]pyridin-3-yl}-1-[5-(trifluoromethyl)-pyridin-2-yl]-1H-pyrazole-4-carboxamide mesylate]",62.3,34.7,–,–
"Cc1c(C(=O)Nc2ccc([C@]3(O)CC[C@@H](N4CCOCC4)CC3)nc2)cnn1-c1ccc(C(F)(F)F)cn1 [Example E2, N-{6-[r-1-Hydroxy-c-4-(morpholin-4-yl)cyclohexyl]pyridin-3-yl}-5-methyl-1-[5-(trifluoromethyl)pyridin-2-yl]-1H-pyrazole-4-carboxamide]",179,24.4,–,–
Cc1c(C(=O)Nc2ccc(C3(C#N)CCC4(CC3)OCCO4)nc2)cnn1-c1ccc(C(F)(F)F)cc1 [Example E6],28.5,36.9,–,–
N#CC1(c2ccc(NC(=O)c3ccc(-c4ccc(Cl)cc4)o3)cn2)CCC2(CC1)OCCO2 [Example E18],50.4,8.8,–,–
Cc1c(C(=O)Nc2ccc(C3CCC(=O)CC3)nc2)cnn1-c1ccc(F)cc1F [Example E21],180,8.3,–,–
Cc1ccc(-n2ncc(C(=O)Nc3ccc(C4CCC(=O)CC4)nc3)c2C)cc1 [Example E22],328,2.7,–,–
"Cc1cc(NC(=O)c2cnn(-c3ccc(C(F)(F)F)cc3)c2C)cnc1C1=CCOCC1 [Example E30, N-[6-(3,6-Dihydro-2H-pyran-4-yl)-5-methylpyridin-3-yl]-5-methyl-1-[4-(trifluoromethyl)-phenyl]-1H-pyrazole-4-carboxamide]",149,10.7,–,–
Cc1c(C(=O)Nc2ccc(C3(C#N)CCC(=O)CC3)nc2)cnn1-c1ccc(F)c(F)c1 [Example F10],–,–,278,8

# Continued, in another order:
"IC50 ([1]; Mus musculus, 72 h) [nM]",SMILES,inhibition at 1 µM (hERG; [2]) [%],IC50 ([1]; 72 hours) [nM],inhibition at 1 µM (hERG; pH 7.4) [%]
53.4,"Cc1c(C(=O)Nc2ccc(C3(C#N)CCC(=O)CC3)nc2)cnn1-c1ccc(C(F)(F)F)cn1 [Example F2, N-[6-(1-Cyano-4-oxocyclohexyl)pyridin-3-yl]-5-methyl-1-[5-(trifluoromethyl)pyridin-2-yl]-1H-pyrazole-4-carboxamide hydrochloride]",22.4,–,–
107,Cc1c(C(=O)Nc2ccc(C3(C#N)CCC(=O)CC3)nc2)cnn1-c1ccc(F)cc1 [Example F6],6.8,–,–
61.6,Cc1c(C(=O)Nc2ccc(C3(C#N)CCC(=O)CC3)nc2)cnn1-c1ccc(Cl)c(Cl)c1 [Example F8],15.4,–,–
321,Cc1c(C(=O)Nc2ccc(C3CCC(=O)CC3)nc2)cnn1-c1ccc(C(C)(C)C)cc1 [Example F26],8.1,–,–
146,Cc1cc(NC(=O)c2cnn(-c3ccc(C(F)(F)F)cn3)c2C)cnc1C1CCC(=O)CC1 [Example F32],17.9,–,–
48,"Cc1c(C(=O)Nc2ccc([C@H]3CC[C@H](O)CC3)nc2)cnn1-c1ccc(C(C)(C)C)cc1 [Example G4, trans-1-(4-tert-Butylphenyl)-N-[6-(4-hydroxycyclohexyl)pyridin-3-yl]-5-methyl-1H-pyrazole-4-carboxamide]",5.2,–,–
86.6,"Cc1cc(NC(=O)c2cnn(-c3ccc(C(F)(F)F)cc3)c2C)cnc1C1=CCC(O)CC1 (stereo not shown) [Example G5, N-[6-(4-Hydroxycyclohex-1-en-1-yl)-5-methylpyridin-3-yl]-5-methyl-1-[4-(trifluoromethyl)-phenyl]-1H-pyrazole-4-carboxamide]",11.7,–,–
56.4,Cc1c(C(=O)Nc2ccc([C@]3(C#N)CC[C@@H](O)CC3)nc2)cnn1-c1ccc(Cl)c(Cl)c1 [Example G8],1.9,–,–
